Values quoted from earlier work as cited in patent publication EP1232240B1, “DETERGENT COMPOSITIONS” (UNILEVER N.V., priority 1999, dated 2001).

Settings: grams of solid to form a saturated solution in 100 grams of water at 20°C

Water Solubility (g/100g): >100 g/100g
Structure (SMILES): NC(N)=O [Urea]
